Laboratory results reported in US20210353613A1, “TREATMENT OF NEUROLOGICAL DISEASE” (Aclipse One Inc., priority 2018, published 2021).
Entries after “also recorded” stand apart in the source; their conditions may differ.

What was measured:
Format in all cases: cell-based
[1] = test system: mouse motor neuron (MN) survival; assay: Co-culture of patient iAstrocytes with mouse Hb9-GFP motor neurons: MN survival; conditions: for mouse Hb9GFP+ motor neuron rescue: percentage of motor neuron survival: FIG. 4, 10uM, 3 days after administration, compared to vehicle (DMSO), sALS, SOD1, C9orf72 iAstrocytes
Description: Induced astrocytes from control or ALS patients were used in a co-culture assay to determine their effect on mouse motor neuron (MN) survival. Mouse embryonic stem cell-derived motor neurons expressing green fluorescence protein (GFP) under the control of the HB9 promoter were sorted and added to iAstrocytes from patients and controls. […] The survival of mouse MNs was monitored on Day 1 and 3 with confocal image acquisition.
The MN survival on Day 3 was evaluated as a percentage of survived MN cells observed on Day 1.

misfolded SOD1 = assay: Misfolded SOD1 immunocytochemistry (B8H10 antibody) in human iAstrocytes; conditions: for SOD1 misfolding in human iAstrocytes: FIGS. 7 and 8 legends, iAstrocytes from controls and C9orf72, SOD1, sporadic ALS patients; for misfolded SOD1 positive cells: 10 μM, 24 hours
Description: The preparation of iAstrocytes has been described in Example 1. At Day 5, the 96 well plate was coated with fibronectin diluted 1:400 in PBS and allowed to set for cell adhesion. iAstrocytes were first washed in an appropriate volume of PBS before incubating for 5 min at 37° C. in lml of accutase. The accutase was neutralized in an appropriate volume of iAstrocyte medium and cells were collected in a 15 ml falcon and centrifuged at 200g for 4 min to form a pellet. The pellet was resuspended in an appropriate volume of medium and the cells were counted using a Burker hemocytometer. The cells were seeded at the desired density and were left for 24 hours to adhere. […]
At Day 7, iAstrocytes were fixed in 4% PFA. These were then stained with misfolded SOD1 antibody (B8H10), CD44 to identify cell area and DAPI. Columbus analysis software was used to quantify immunocytochemistry images. In each condition, the number of nuclei was established. In astrocytes stained for misfolded SOD1 protein aggregates, the number, intensity and area of misfolded SOD1 aggregates within the nucleus and surrounding perinuclear area were quantified as well as the percentage of cells positive for misfolded SOD1 accumulation.

induced MN cells = assay: Co-culture of iAstrocytes with human induced motor neurons from the same donors: MN survival; conditions: for MN survival on Day 3: 10 μM
Description: Induced Astrocytes from healthy controls or ALS patients were also used in a co-culture assay to determine their effect on the survival of induced MN cells from the same healthy controls or ALS patients.
The preparation of iAstrocytes and induced MN cells has been described in Example 1. […] The MN survival on Day 3 was evaluated as a percentage of survived MN cells observed on Day 1.

[2] = iAstrocytes from three ALS patients with C9orf72 mutation, mouse MNs
[3] = iAstrocytes and induced MNs from ALS patient with C9orf72 mutation

| Compound | mouse Hb9GFP+ motor neuron rescue: percentage of motor neuron survival [1] | survival of MN cells on Day 3 [1, 2] | survival of MN cells on Day 3 ([1]; iAstrocytes from three sporadic ALS (sALS) patients, mouse MNs) | SOD1 misfolding in human iAstrocytes (misfolded SOD1) | MN survival on Day 3 (induced MN cells; [3]) | MN survival on Day 3 (percentage of survived MN cells observed on Day 1) ([1]; iAstrocytes from ALS patients with C9orf72 mutation, mouse MNs, untreated no more than 33%) | survival of MN cells on Day 3 ([1]; iAstrocytes from ALS patients with SOD1 mutation, mouse MNs) | percentage of misfolded SOD1 perinuclear aggregates (DMSO = 100%) (misfolded SOD1; FIG. 9, 10uM, 48 hours, iAstrocytes of sALS, SOD1, C9orf72 patients and controls, listed as (6a5)-6-methyl-5,6,6a,7-tetrahydro-4H-dibenzo[de,g]quinoline-10,11-diol) | misfolded SOD1 positive cells (misfolded SOD1; SOD1 astrocytes compared with other cell types) | misfolded SOD1 positive cells (misfolded SOD1; all cell types (control, C9orf72, SOD1, sporadic iAstrocytes)) | toxicity of astrocytes to MN cells (MN survival on Day 3) (induced MN cells; iAstrocytes and induced MNs from ALS patient with SOD1 mutation) | MN survival on Day 3 (induced MN cells; iAstrocytes and induced MNs from sALS patients) |
| --- | --- | --- | --- | --- | --- | --- | --- | --- | --- | --- | --- | --- |
| C=C1CC[C@@H]2[C@](C)(CO)[C@H](O)CC[C@@]2(C)[C@@H]1C/C=C1/C(=O)OC[C@H]1O [andrographolide, reference compound] | increase in percentage of motor neuron survival | significantly improved | most significantly improved | Reduced SOD1 misfolding | the most significant outcome | – | – | – | – | – | – | – |
| Nc1nc2ccc(OC(F)(F)F)cc2s1 [riluzole, reference compound] | – | – | – | Reduced SOD1 misfolding | – | – | – | – | – | – | – | – |
| CN1CCc2cccc3c2[C@@H]1Cc1ccc(O)c(O)c1-3 [(6aS)-6-methyl-5,6,6a,7-tetrahydro-4H-dibenzo[de,g]quinoline-10,11-diol] | increase in percentage of motor neuron survival | significantly improved | – | Reduced SOD1 misfolding | the most significant outcome | up to 38% | most significant improvement | reduction of misfolded SOD1 in all patient lines treated; also recorded: significant reduction in misfolded SOD1 in 6 different patient lines | greatest decrease in SOD1 astrocytes | reduction of misfolded SOD1 positive cells across all cell types | most effectively dampened the toxicity of SOD1-derived astrocytes | beneficial at reducing toxicity caused by iAstrocytes from some sporadic patients over others |
